We go through eight molecules from patent US20240294460A1, “DEUTERATED ANALOGS AND DERIVATIVES OF 4-BROMO-2,5-DIMETHOXYPHEN[…] USES THEREOF” (Terran Biosciences Inc., priority 2021, published 2024).

“And” between values parts separate entries of the source, which are not always exact repeats. Equal entries are not always repeated. Structures can show the parent of a compound that is named as a salt.

This data set is described as follows: Metabolic stability in human liver microsomes. Conditions: substrate 1 μM, NADPH 1 mM, 37° C., 0-45 min; for microsomal CLint at 1 μM / half-life at 1 μM: human, microsomes; for microsomal CLint at 1 μM: pH 7.4, CLint; for half-life at 1 μM: pH 7.4, t1/2, pooled human liver microsomes 0.5 mg/mL. How it is done:
Pooled human liver microsomes were purchased from a commercial supplier. Microsomes were stored at −80° C. prior to use. […] A minus cofactor control incubation was included for each test compound where 0.1 M phosphate buffer pH 7.4 was added instead of NADPH (minus NADPH). Two control compounds (dextromethorphan and verapamil) were included with each test compound. All incubations were performed individually for each test compound. […] The reactions were stopped by transferring incubate into acetonitrile at the appropriate time points, in a 1:3 ratio. The termination plates were then centrifuged at 3,000 rpm for 20 min at 4° C. to precipitate the protein.
From a plot of ln peak area ratio (test compound peak area/internal standard peak area) against time, the gradient of the line was determined.
Elimination rate constant (k)=(−gradient)
where V=Incubation volume (μL)/Microsomal protein (mg).

[1] abbreviates: pooled human liver microsomes 0.5 mg/mL.

`Cl.[2H]C([2H])([2H])Oc1cc(CCN)c(OC)cc1Br` [2-(4-Bromo-2-methoxy-5-(methoxy-d3)phenyl)ethan-1-amine hydrochloride] had a half-life at 1 μM of 2.5 h. This molecule had a microsomal CLint at 1 μM under setting [1] of 9.22 µL/min/mg.
In the same order, the values of `Cl.[2H]C([2H])([2H])Oc1cc(C([2H])([2H])C([2H])([2H])N)c(OC)cc1Br` [2-(4-bromo-2-methoxy-5-(methoxy-d3)phenyl)ethan-1,1,2,2-d4-1-amine hydrochloride] are 2.2 h and 10.5 µL/min/mg.
The corresponding values for `Cl.[2H]C([2H])(N)Cc1cc(OC([2H])([2H])[2H])c(Br)cc1OC` [2-(4-bromo-2-methoxy-5-(methoxy-d3)phenyl)ethan-1,1-d2-1-amine hydrochloride] are 2.12 h and 10.9 µL/min/mg.
The corresponding values for `Cl.[2H]C([2H])([2H])Oc1cc(Br)c(OC)cc1C([2H])([2H])C([2H])([2H])N` [2-(4-bromo-5-methoxy-2-(methoxy-d3)phenyl)ethan-1,1,2,2-d4-1-amine hydrochloride] are 1.95 h and 11.9 µL/min/mg.
`Cl.[2H]C([2H])(N)Cc1cc(OC)c(Br)cc1OC([2H])([2H])[2H]` [2-(4-bromo-5-methoxy-2-(methoxy-d3)phenyl)ethan-1,1-d2-1-amine hydrochloride] returned a half-life at 1 μM of 1.87 h. The microsomal CLint at 1 μM under setting [1] was 12.4 µL/min/mg.
In the same order, the values of `Cl.[2H]C([2H])([2H])Oc1cc(Br)c(OC)cc1CCN` [2-(4-bromo-5-methoxy-2-(methoxy-d3)phenyl)ethan-1-amine hydrochloride] are 1.27 h and 18.2 µL/min/mg.
`COc1cc(CCN)c(OC)cc1Br` [2C-B HCl salt, 4-bromo-2,5-dimethoxyphenethylamine, reference compound] registered a half-life at 1 μM of 2.42 h. The molecule further had a microsomal CLint at 1 μM under setting [1] of 9.56 µL/min/mg.
For `COc1ccc2c(c1)[C@]13CCCC[C@@H]1[C@H](C2)N(C)CC3` [dextromethorphan, reference compound], the half-life at 1 μM turned out to be 0.452 h. In addition, under setting [1], the microsomal CLint at 1 μM was determined as 51.2 µL/min/mg; the CLint was 53.0 μL/min/mg protein and 55.0 μL/min/mg protein; the t1/2 was 0.437 h and 0.42 h.
